According to publication PMC6719321 (Clinical Pharmacokinetics, 2019):
Each block holds one compound with its values, some of them ahead of it.

Assays:
[1] = cited from earlier work
Trial 2 = type: in vivo, human
[2] = cited from earlier work; remark: listed apart in the source
[3] = Trial 1: safety and tolerability, treatment-emergent adverse events; type: in vivo, human; settings: after warfarin 25 mg, day 9, one subject, moderate severity, possibly related to warfarin
[4] = trial 2, oral semaglutide 20 mg once daily

tmax (Trial 2; digoxin 500 μg single dose alone, N = 31, median (minimum, maximum)): 1.0 h | mean t½ (Trial 2; digoxin single dose, alone and with oral semaglutide (both conditions)): 42 to 43 h
Compound: C[C@H]1O[C@@H](O[C@H]2[C@@H](O)C[C@H](O[C@H]3[C@@H](O)C[C@H](O[C@H]4CC[C@@]5(C)[C@H](CC[C@@H]6[C@@H]5C[C@@H](O)[C@]5(C)[C@@H](C7=CC(=O)OC7)CC[C@]65O)C4)O[C@@H]3C)O[C@@H]2C)C[C@H](O)[C@@H]1O [Digoxin, digoxin]
Reduction of Cmax on coadministration with liraglutide [1]: 27–38% | AUC on coadministration with exenatide ([1]; digoxin PK): unchanged | Decrease of Cmax on coadministration with exenatide ([1]; digoxin PK): 17% | absorption (incomplete) ([2]; oral): ~ 70% | half-life ([2]; used to set the length of the washout periods, no reference given): 30 to 50 h

tmax (Trial 1; lisinopril 20 mg single dose alone, N = 52, median (minimum, maximum)): 6.0 h
Compound: NCCCC[C@H](N[C@@H](CCc1ccccc1)C(=O)O)C(=O)N1CCC[C@H]1C(=O)O [Lisinopril, lisinopril]

Mean AUC0–24h at steady state (Trial 1; trial 1, oral semaglutide 20 mg once daily, after last dose (day 84)): 0.76196 µM·h | mean t½ (Trial 1; trial 1, oral semaglutide 20 mg once daily, steady state): 162 h | AUC0–24h at steady state, range of geometric means (Trial 2; [4]): 0.622 to 0.719 µM·h | Cmax at steady state, range of geometric means (Trial 2; [4]): 31.0 to 35.8 nM
Compound: CC[C@H](C)[C@H](NC(=O)[C@H](Cc1ccccc1)NC(=O)[C@H](CCC(=O)O)NC(=O)[C@H](CCCCNC(=O)COCCOCCNC(=O)COCCOCCNC(=O)CC[C@H](NC(=O)CCCCCCCCCCCCCCCCC(=O)O)C(=O)O)NC(=O)[C@H](C)NC(=O)[C@H](C)NC(=O)[C@H](CCC(N)=O)NC(=O)CNC(=O)[C@H](CCC(=O)O)NC(=O)[C@H](CC(C)C)NC(=O)[C@H](Cc1ccc(O)cc1)NC(=O)[C@H](CO)NC(=O)[C@H](CO)NC(=O)[C@@H](NC(=O)[C@H](CC(=O)O)NC(=O)[C@H](CO)NC(=O)[C@@H](NC(=O)[C@H](Cc1ccccc1)NC(=O)[C@@H](NC(=O)CNC(=O)[C@H](CCC(=O)O)NC(=O)C(C)(C)NC(=O)[C@@H](N)Cc1cnc[nH]1)[C@@H](C)O)[C@@H](C)O)C(C)C)C(=O)N[C@@H](C)C(=O)N[C@@H](Cc1c[nH]c2ccccc12)C(=O)N[C@@H](CC(C)C)C(=O)N[C@H](C(=O)N[C@@H](CCCNC(=N)N)C(=O)NCC(=O)N[C@@H](CCCNC(=N)N)C(=O)NCC(=O)O)C(C)C [semaglutide]

More lines, now with the values behind:

Compound: CN(C)C(=N)N=C(N)N [Metformin, metformin]
Increase in AUC on coadministration of multiple doses of dulaglutide ([1]; steady-state metformin): up to 15% | tmax in trial 2 (Trial 2; metformin steady state, morning dose fasting): 0.8 to 1.0 h | tmax generally reported [2]: 2.5 h

Compound: CC(=O)CC(c1ccccc1)c1c(O)c2ccccc2oc1=O (stereo not drawn) [Warfarin, warfarin]
INRmax of the subject with a bleeding event (epistaxis) [3]: 2.53 | absorption ([2]; oral): completely absorbed

Compound: subcutaneous semaglutide: semaglutide as once-weekly subcutaneous injection
mean t½ for subcutaneous semaglutide [2]: 156 to 160 h
